From patent publication US12274703B2, “Compositions and methods of treatment for neurological disorders comprising a dementia” (Gliapharm SA, priority 2017, dated 2025) come the findings set out here.

This assay deals with astrocytes. The assay can be described thus: Extracellular lactate quantification. The class given is cell-based, mouse. The note with it: Mus musculus, Astrocyte; Appendix II; lactate secretion; read-out: EC50. As to the method:
Primary cultures of cerebrocortical astrocytes were obtained from 1-2-day-old OF1 mouse pups (Charles River Laboratories). Briefly, cortices were isolated and minced in small pieces under a dissecting microscope. The cells were incubated for 30 min at 37° C. in a solution containing 20 U/ml of papain enzyme (Worthington Biochemical), L-cysteine 1 mM (Sigma), and 10 kU/ml DNase I (Worthington Biochemical) for an enzymatic dissociation. Papain activity was stopped by the addition of fetal calf serum (FCS) to the solution, and a single-cell suspension was then obtained by mechanical dissociation, which consisted in cells trituration in a DMEM (D7777, Sigma-Aldrich) medium (supplemented with 44 mm NaHCO3, and 10 ml/L antibiotic/antimycotic solution) containing 10% FCS. The cells were seeded at an average density of 6×10^4 cells/cm^2 in poly-D-lysine-coated 96, 12 or 6-well culture plates, depending on their use, and incubated at 37° C. in a humidified atmosphere containing 5% CO2/95% air. Culture medium was renewed twice per week. Cells were stimulated and harvested between DIV14 and DIV17, when confluence and cell growth were optimal.
Secretion of L-lactate was determined in the extracellular medium of 96-well plated astrocytes after 90 min stimulation (at 37° C., in 5% CO2/95% air conditions) with the drug of interest. The stimulation medium was composed of D5030 medium (completed with D-glucose 5 mM and 44 mM sodium bicarbonate) for 90 min in concentrations ranging from 0 to 100 μM.
Briefly, 200 μl of a Glycine (Sigma)-Semicarbazide (Acros) 0.2M pH 10 buffer containing 3 mM NAD (Roche) and LDH 14 U/ml (Roche) was added to each well of a 96-well plate containing 30 μl aliquots complemented with 20 μl fresh complete D5030 medium. Samples were incubated at 37° C. for 1 h. After samples cooled down at room temperature, the fluorescence intensity (340 nm excitation/450 nm emission) that represents the amount of NADH produced was measured, and lactate concentration values were determined from a standard curve of L-lactate.
Statistical analysis consisted in ANOVA followed by Fisher LSD post-hoc test for pair-wise comparisons.
Levels of lactate secreted by astrocytes were measured in the extracellular medium at 90 min after stimulation with hits (molecules) from the CDC54K library.
Turning to `Cn1c(=O)c(N2CCC(NC(=O)Nc3cccc(Cl)c3)CC2)nc2ccccc21` [L932-0267], the EC50 amounted to 4.64 µM.
Consider `Cc1c(O)ccc2c(CN(C)CC3COc4ccccc4O3)cc(=O)oc12` (centres unmarked) [T5494352], for which the EC50 is 5.02 µM.
Next, `Cc1ccc(S(=O)(=O)Nc2ccc(F)c(F)c2F)cc1[N+](=O)[O-]` [T5729557]: 5.69 µM.
On to `COc1ccc(NS(=O)(=O)c2ccc(NC(=O)C3CCCO3)cc2)cc1` (centres unmarked) [T5329723], for which the EC50 was determined as 4.61 µM.
In the case of `O=C(CN1CCCC1c1ccc2c(c1)OCCCO2)Nc1cc(F)cc(F)c1` (centres unmarked) [T5993799], the EC50 amounted to 8.81 µM.
`CC(=O)N1CC(C)(C)c2cc(S(=O)(=O)Nc3ccc(F)cc3C)ccc21` [L302-0181]: the concentration for a half-maximal effect (EC50) is 5.05 µM.
Consider `Cc1nc2ncnn2c(NCc2ccco2)c1C` [Z606-8298], for which the EC50 was 4.89 µM.
For the compound `Cc1ccc(-c2csc(NC(=O)c3ccncc3)n2)cc1[N+](=O)O` [T5694329], the EC50 is 1.59 µM.
In the case of `CC(=O)Nc1cccc(NC(=O)CSc2nc(C)c(C)n2C2CCCC2)c1` [T5788339], the EC50 was found to be 3.9 µM.
In the case of `CCNc1cc(C)nc(Nc2ccc(NC(=O)Cc3ccccc3)cc2)n1` [G869-0064], the EC50 was 4.26 µM.
Then `CCc1c(C)nc2ncnn2c1NC1CCCCCC1` [Z606-8351], with 5 µM.
For the compound `Cc1nc2ncnn2c(NC2CCCCCC2)c1C` [Z606-8287], the EC50 amounted to 4.29 µM.
For `CCc1cc2c(NC3CCCC3)ncnc2s1` [887-0183], the EC50 was determined as 3.94 µM.
On to `CN(C)c1ccc2ncnc(N3CCN(C(=O)c4ccc(Cl)cc4)CC3)c2c1` [M381-0730], for which the EC50 amounted to 3.19 µM.
Next, `COc1ccc(C(C)NC(=O)c2cc(=O)c3ccccc3o2)cc1F` (centres unmarked) [T5710343]: 6.31 µM.
For `CC1(C)Cc2cccc(OCC(O)CN3CCc4ccccc4C3)c2O1` (centres unmarked) [T0515-1783], the EC50 worked out at 5.39 µM.
Regarding `Cc1sc2nc(CSc3nc4ccccc4c(=O)n3C)[nH]c(=O)c2c1C` [T0517-2783], the EC50 amounted to 3.84 µM.
Consider `CCN(CC)S(=O)(=O)c1ccc(S(=O)(=O)Nc2ccc(C)cc2Cl)cc1` [T5453923], for which the EC50 is 5.36 µM.
Regarding `COc1ccc(CCNc2ncnc3c2cnn3C)cc1` [K405-2595], the EC50 stood at 3.51 µM.
Then `O=S(=O)(Nc1ccc(Cl)cc1)c1ccc(F)c(Cl)c1` [T6947848], with 5.5 µM; and `c1ccc(-c2c[nH]c3ncnc(NCCN4CCOCC4)c23)cc1` [T0513-0213], with 3.99 µM; and `O=C(Nc1ccc(S(=O)(=O)NCC2CCCO2)cc1)c1ccccc1` (centres unmarked) [Y031-0361], with 8.23 µM.
Next, `CCc1ccc(S(=O)(=O)Nc2cc3c(cc2C)n(C)c(=O)n3C)cc1` [G433-0293]: 4.48 µM; `Cc1noc2ncnc(NC(C)CCc3ccccc3)c12` (centres unmarked) [E944-0182]: 3.99 µM; `c1ccc(Cc2ccc(OCCn3ccnc3)cc2)cc1` [T5821723]: 4.29 µM.
Next, `CC(=O)N1CCc2cc(S(=O)(=O)NCC(C)c3ccccc3)ccc21` (centres unmarked) [T5707230]: 4.88 µM.
Consider `CCOc1ccc(C2(O)C(C)[N+]3=C(CCC3)N2c2ccc(OC)cc2)cc1` (centres unmarked) [T0500-6629], for which the EC50 worked out at 2.61 µM.
`CCOc1ccc(CN(C)CC(=O)Nc2cccc(C)c2)cc1OC` [T5318833]: the EC50 worked out at 5.45 µM.
Then `COc1ccccc1NC(=O)CO/N=C(/N)c1cccc(C(F)(F)F)c1` [T5770640], with 4.86 µM.
Next, `CCCCn1c(CN(C)Cc2ccccc2)nc2c1c(=O)n(C)c(=O)n2C` [T5788545]: 3.59 µM; `COc1ccc(NS(=O)(=O)c2cccc(NC(=O)c3ccccc3)c2)cc1` [T5274959]: 4.12 µM; `N#Cc1ccc(S(=O)(=O)Nc2ccccc2C(=O)NCc2ccccc2)cc1` [T5673322]: 7.42 µM.
Next, `O=S(=O)(Nc1ccc(S(=O)(=O)C(F)F)cc1)c1ccc(Cl)cc1` [T5311200]: 6.02 µM; `COc1ccc(NS(=O)(=O)c2cccc(NC(=O)c3cccs3)c2)cc1` [T0517-4117]: 5.43 µM; `CCc1c(C)nc2ncnn2c1NC1CCCCC1` [Z606-8352]: 4.11 µM.
Take `CC(C)(C)NS(=O)(=O)c1cccc(C(=O)Nc2ccncc2)c1` [T5827594]: the EC50 amounted to 5.02 µM.
With `Cc1nc2ccccc2n1CCOc1ccc(Br)cc1` [T0505-4087], the EC50 stood at 7.07 µM.
As for `CN1c2ccccc2C(=O)NC1c1ccc(Cl)c(Cl)c1` (centres unmarked) [T5389517], the EC50 is 5.74 µM.
Consider `CCc1ccccc1NC(=O)CN(C)c1ncnc2c1oc1ccccc12` [T5712071], for which the EC50 turned out to be 1.14 µM.
Then `Cc1sc2nc(CSc3nc4ccccc4[nH]3)nc(N)c2c1C` [T5719257], with 2.85 µM; and `CCN1C(=O)c2cccc3c(S(=O)(=O)Nc4ccc(OC)cc4OC)ccc1c23` [T5477696], with 5.1 µM.
Consider `CC(=O)c1c(C)[nH]c(C(=O)C(C)N(C)Cc2ccc3c(c2)OCO3)c1C` (centres unmarked) [T5798761], for which the EC50 worked out at 4.01 µM.
Next, `O=C(Nc1ccc(F)c(F)c1)c1ccc(Cl)c(S(=O)(=O)N2CCCC2)c1` [T5450239]: 4.42 µM; `N#Cc1cc(C(=O)c2cc(F)ccc2O)cn(-c2ccc(F)c(Cl)c2)c1=O` [T0516-6894]: 8.21 µM.
As for `CCc1cccc(NS(=O)(=O)c2ccc3c(c2)CCCN3C(C)=O)c1` [G855-0143], the EC50 is 4.72 µM.
As for `CN(C)S(=O)(=O)c1cccc(C(=O)Nc2ccc(Oc3ccccc3)cc2)c1` [T5393500], the EC50 was 3.43 µM.
As to `C1CCCC(NC2=NCCCNC23CCCCC3)CC1` [Z076-0028], the EC50 was found to be 8.01 µM.
Next, `Cc1cccc(NC(=O)c2ccc(S(=O)(=O)Nc3ccccc3)cc2)n1` [T6125251]: 4.56 µM; `CCOc1ccc(-c2csc3c(=O)n(Cc4ccncc4)cnc23)cc1OCC` [L115-0403]: 3.28 µM.
Then `COc1cccc(C(CNc2nc(C(F)(F)F)nc3ccccc23)N(C)C)c1` (centres unmarked) [T5800607], with 5.87 µM.
Next, `c1nc(NCc2ccc3c(c2)OCO3)c2sccc2n1` [T5787526]: 3.89 µM.
In the case of `FC(F)(F)c1cccc(CNc2ncnc3[nH]ncc23)c1` [F5285-0069], the EC50 is 6.29 µM.
Consider `CCN(CC)C(=O)c1nc(CNC(=O)c2ccc3ccccc3n2)oc1C` [T993-1787], for which the EC50 stood at 7.99 µM.
As for `CCCCN1C(=O)C(C)(C(=O)Nc2ccc(OCC)cc2)Oc2cccnc21` (centres unmarked) [P621-1364], the EC50 turned out to be 5.86 µM.
On to `Cn1nc(C(=O)Nc2ccc(Oc3ccccc3Cl)cc2)ccc1=O` [T5813085], for which the EC50 came out at 4.1 µM.
Regarding `CCc1ccc(NS(=O)(=O)c2c(C)c(-c3nnc(C4CC4)o3)n(C)c2C)cc1` [M950-1515], the EC50 turned out to be 4.06 µM.
Then `c1ccc(CN2CCOCC2)c(CNc2ncnc3ccsc23)c1` [T5790476], with 3.98 µM; and `CCn1c(=O)c(C)nc2cc(C(=O)N(Cc3ccc(F)cc3)C3CC3)ccc21` [T5586091], with 5.36 µM.
For `Cc1nc2ccc(NC(=O)c3ccc4c(c3)CC(C)N4S(C)(=O)=O)cc2s1` (centres unmarked) [T5606387], the EC50 was 4.61 µM.
`CCC(C)NS(=O)(=O)c1ccc(Oc2ccc(C)cc2)cc1` (centres unmarked) [T5400234]: the EC50 was found to be 4.64 µM.
Consider `COc1ccc(NS(=O)(=O)c2ccc(N3CCCCS3(=O)=O)cc2)cc1` [G508-0015], for which the EC50 is 4.83 µM.
Turning to `CCNc1cc(C)nc(Nc2ccc(NC(=O)c3cccs3)cc2)n1` [G869-0071], the EC50 amounted to 4.9 µM.
For `CCCC(=O)Nc1nc(-c2ccc3c(c2)CCO3)cs1` [T5691896], the EC50 came out at 5.21 µM.
In the case of `CCc1ccc(S(=O)(=O)Nc2c(C)nn(C)c2C)cc1` [T5753165], the EC50 was 6.41 µM.
Turning to `CC(=O)N1CCCc2cc(S(=O)(=O)Nc3ccc(OC(F)(F)F)cc3)ccc21` [G855-0183], the EC50 amounted to 6 µM.
Then `Cc1cccc(NS(=O)(=O)c2ccc(F)c(Cl)c2)c1` [F3394-1364], with 5.87 µM; and `Cc1ccc(OCCn2c(C)nc3ccccc32)cc1` [T5444083], with 4.59 µM; and `CCc1ccc(NC(=O)Cc2cn(C)c3ncccc23)cc1` [M508-0370], with 4.58 µM.
Then `O=c1[nH]nc(OCCOc2ccc(Br)cc2)n1C1CC1` [T533260], with 6.84 µM; and `CC(=O)c1c(C)[nH]c(C(=O)N(C)Cc2ccc(C)cc2C)c1C` [T5705522], with 2.53 µM.
For the compound `COc1ccc(S(=O)(=O)Nc2ccc(N3CCCCS3(=O)=O)cc2)cc1C` [F2794-0128], the EC50 was found to be 9.85 µM.
`CC(=O)N1CC(C)(C)c2cc(S(=O)(=O)NCc3ccc(C)cc3)ccc21` [L302-0069]: the EC50 amounted to 6.27 µM.
For the compound `COc1ccc(-c2csc(N3C(=O)CC4CS(=O)(=O)CC43)n2)cc1` (centres unmarked) [T5832764], the EC50 is 4.02 µM.
Turning to `COc1cc(C)c(NC(=O)Cc2ccc(Cl)c(Cl)c2)cc1OC` [T5783794], the EC50 turned out to be 6.11 µM.

A word on the EC50: it is the concentration that produces a half-maximal response.
